From patent US12643861B2, “Crystalline form of fluvatinib or fluvatinib methanesulfonate and preparation method therefor” (CHONGQING PHARMACEUTICAL RESEARCH INSTITUTE CO., LTD, priority 2020, dated 2026)
Where a name gives a salt, the structure may show the parent alone. Read-outs that look alike come from different tables or passages of the source. One block for each molecule: values may come before it.

Assays:
Format in all cases: physicochemical
[1] = Stability of crystalline form I of fluvatinib mesylate stirred in acetone, ethanol, ethyl acetate, XRPD; settings: acetone or ethyl acetate, stirred 10 h at room temperature
Description: The crystalline form I of fluvatinib mesylate was stored in acetone, ethanol and ethyl acetate to investigate whether there was a crystal transformation.
3 parts of about 50 mg the crystalline form I of fluvatinib mesylate were weighed and respectively added to reaction flasks containing an appropriate amount of acetone, ethanol, or ethyl acetate solvent. The suspension samples were placed on magnetic stirrers, stirred for 10 h at room temperature, and filtered. The filter cake was dried at 40-50° C. with spinning under reduced pressure. The obtained dry samples were detected by XRPD.

[2] = Crystalline form stability on tableting and storage of tablets, XRPD; settings: for crystal transformation during the process of preparing tablets: direct compression tablets, 30% crystalline form; for crystal transformation after the tablets being placed for 6 months: 40° C., 75% RH
Description: The formula amounts of the crystalline form of fluvatinib mesylate, anhydrous lactose and direct compression starch were mixed, and then mixed with magnesium stearate. The mixture was prepared into tablets by direct compression method, with each table weighed 200 mg.
The crystalline forms before and after being prepared into tablets and after the tablets being placed in 40° C., 75% RH environment for 6 months were detected by XRPD. The results are shown in FIGS. 19 and 20, wherein A, B, and C represent XRPD patterns of the crystalline form before and after being prepared into tablets and after the tablets being placed for 6 months.

[3] = Hydrothermal stability of the crystalline forms of fluvatinib mesylate, XRPD; settings: Table 11
Description: The crystalline forms I, III, IV, V, VI, and VII of fluvatinib mesylate of the present disclosure were placed in harsh environments to investigate their stability. They were placed under high temperature and high humidity conditions: 25° C. 92.5% R.H for 7 days, 40° C. 75% R.H for 14 days, and 60° C. for 14 days, and then detected by XRPD.

[4] = Stability under high temperature and high humidity for half of a month or 3 months
[5] = Dynamic vapor sorption (DVS) hygroscopicity
Description: At the same time, the crystalline form I of fluvatinib mesylate was tested for dynamic hygroscopicity by DVS to detect water content. […] This indicates again that the crystalline form I of fluvatinib mesylate has good stability.
The crystalline form III of fluvatinib mesylate was tested for hygroscopicity under humidity conditions of 25° C., 0-90% RH, using a dynamic moisture tester a dynamic vapor sorption (DVS) analyzer.

[6] = Crystal transformation test of crystalline form I of fluvatinib stirred in solvents, XRPD; settings: 40° C.
Description: The crystalline form I of fluvatinib was placed in an organic solvent and a water-containing organic solvent, and stirred at 40° C. for 2 days to investigate whether there was a crystal transformation.
A number parts of about 30 mg of the crystalline form I of fluvatinib (Form I) were respectively weighed and added to different glass bottles, and added with an appropriate amount of a single organic solvent or a mixture containing water (see Table 8) to form suspensions. The above-mentioned suspension samples were placed on magnetic stirrers (40° C.) to perform a stirring test. After being stirring at 40° C. for 2 days, the suspension samples were filtered. The filter cake samples were then dried overnight in a vacuum dry box (40° C.), and the dried samples were detected by XRPD (see Table 8 and FIG. 14).

[7] = Crystal transformation of fluvatinib mesylate crystalline forms stirred in ethanol, XRPD
Description: The crystalline form of the fluvatinib methanesulfonate was investigated on its stability in ethanol, to see whether there is crystal transformation.
About 0.15 g of the crystalline forms II (Form II), III (Form III), VI (Form VI) and VII (Form VII) of the fluvatinib mesylate were weighed and respectively added to reaction flasks containing ethanol, stirred magnetically for 2 days at room temperature, and filtered. The filter cakes were dried at 40-50° C. with spinning under reduced pressure. The obtained dried samples were detected by XRPD.

[8] = Stability of crystalline form III of fluvatinib mesylate in air (oxygen gas), oxidation; settings: exposed to air
Text: To investigate the stability of the crystalline form III of fluvatinib mesylate (Form III), Form III was exposed to air and contacted with oxygen.

[9] = High temperature suspension experiment (50° C.) in organic solvents, XRPD; settings: 25 mg, 24 hours
Description: The crystalline form III of fluvatinib mesylate was subjected to high temperature suspension experiments (50° C.), to investigate whether the crystalline form III of fluvatinib mesylate undergoes crystal transformation in various type of common organic solvents, and whether it is stable. The crystalline form III of fluvatinib mesylate was suspended in 12 types of organic solvents (in 1 mL of solvent) and water as set forth in Table 10 at a temperature of 50° C. and an amount of about 25 mg for 24 hours. The solids after being suspended in the organic solvents were detected by XRPD.

[10] = Solubility compared with lenvatinib; settings: method or value not given
[11] = listed as crystalline forms of fluvatinib
[12] = ethanol, stirred 2 days at room temperature
[13] = stirred in ethanol for 2-4 days

crystal transformation in single solvent [1]: maintained its form
crystal transformation after the tablets being placed for 6 months [2]: no crystal transformation occurred
crystal transformation under high temperature and high humidity conditions [3]: did not undergo crystal transformation
change of content of related impurities / related substances [4]: no apparent change
crystal transformation [4]: did not show crystal transformation
hygroscopic weight gain ([5]; 25° C./80% RH): 1.3%
crystal transformation after DVS measurements ([5]; XRPD before and after DVS): did not undergo crystal transformation
SMILES: COc1cc2nccc(Oc3ccc(NC(=O)NC4CC4)c(Cl)c3F)c2cc1C(N)=O [crystalline form I of fluvatinib mesylate] [fluvatinib methanesulfonate]
crystal transformation during the process of preparing tablets [2]: neither the crystalline form I of fluvatinib mesylate nor the crystalline form III of fluvatinib mesylate undergoes crystal transformation

crystalline form after stirring for 2 days ([6]; THF 0.4 mL): Form I
crystalline form after stirring for 2 days ([6]; THF-water (1:1) 0.4 mL): Form I
crystalline form after stirring for 2 days ([6]; acetone 0.4 mL): Form I
crystalline form after stirring for 2 days ([6]; acetone-water (1:2) 0.4 mL): Form I
crystalline form after stirring for 2 days ([6]; ethanol 0.4 mL): Form I
crystalline form after stirring for 2 days ([6]; ethanol-water (3:1) 0.4 mL): Form I
crystalline form after stirring for 2 days ([6]; ethyl acetate 0.4 mL): Form I
crystalline form after stirring for 2 days ([6]; isopropanol 0.4 mL): Form I
crystalline form after stirring for 2 days ([6]; isopropanol-water (1:1) 0.4 mL): Form I
crystalline form after stirring for 2 days ([6]; methanol 0.4 mL): Form I
crystalline form after stirring for 2 days ([6]; methanol-water (3:1) 0.4 mL): Form I
change of content of related impurities / related substances [4, 11]: no change
crystal transformation [4, 11]: no occurrence of crystal transformation
SMILES: COc1cc2nccc(Oc3ccc(NC(=O)NC4CC4)c(Cl)c3F)c2cc1C(N)=O [crystalline form I of fluvatinib, 4-(2-fluoro-3-chloro-(cyclopropylaminocarbonyl)aminophenoxy)-7-methoxy-6-quinolinecarboxamide]

crystal transformation in ethanol [7, 12]: converted to Form III
SMILES: COc1cc2nccc(Oc3ccc(NC(=O)NC4CC4)c(Cl)c3F)c2cc1C(N)=O [crystalline form II of fluvatinib mesylate] [fluvatinib methanesulfonate]
crystal transformation in ethanol [7, 13]: transformed into the crystalline form III

Stability data in oxygen gas, oxidation ([8]; 20-30° C., 0 hour): 93.66%
Stability data in oxygen gas, oxidation ([8]; 20-30° C., 24 hours): 94.10%
Stability data in oxygen gas, oxidation ([8]; 60° C., 0 hour): 93.61%
Stability data in oxygen gas, oxidation ([8]; 60° C., 24 hours): 94.00%
crystal transformation after the tablets being placed for 6 months [2]: no crystal transformation occurred
crystal transformation under high temperature and high humidity conditions [3]: did not undergo crystal transformation
change of content of related impurities / related substances [4]: no apparent change
crystal transformation [4]: did not show crystal transformation
XRD results ([9]; 1.4-dioxane 1 mL): Form III
XRD results ([9]; acetone 1 mL): Form III
XRD results ([9]; acetonitrile 1 mL): Form III
XRD results ([9]; cyclohexane 1 mL): Form III
XRD results ([9]; dichloromethane 1 mL): Form III
XRD results ([9]; ethanol 1 mL): Form III
XRD results ([9]; ethyl acetate 1 mL): Form III
XRD results ([9]; isopropanol 1 mL): Form III
XRD results ([9]; n-heptane 1 mL): Form III
XRD results ([9]; n-hexane 1 mL): Form III
XRD results ([9]; tetrahydrofuran 1 mL): Form III
hygroscopic weight ([5]; 25° C., 0-90% RH): 0.44%
solubility [10]: better than that of lenvatinib
crystal transformation in ethanol [7, 12]: did not undergo crystal transformation
crystal transformation in ethanol [7, 13]: did not undergo crystal transformation
SMILES: COc1cc2nccc(Oc3ccc(NC(=O)NC4CC4)c(Cl)c3F)c2cc1C(N)=O [crystalline form III of fluvatinib mesylate] [fluvatinib methanesulfonate]
crystal transformation during the process of preparing tablets [2]: neither the crystalline form I of fluvatinib mesylate nor the crystalline form III of fluvatinib mesylate undergoes crystal transformation

crystal transformation under high temperature and high humidity conditions [3]: undergone crystal transformation
SMILES: COc1cc2nccc(Oc3ccc(NC(=O)NC4CC4)c(Cl)c3F)c2cc1C(N)=O [crystalline form V of fluvatinib mesylate] [fluvatinib methanesulfonate]

crystal transformation under high temperature and high humidity conditions [3]: undergone crystal transformation
crystal transformation in ethanol [7, 12]: converted to Form III
SMILES: COc1cc2nccc(Oc3ccc(NC(=O)NC4CC4)c(Cl)c3F)c2cc1C(N)=O [crystalline form VI of fluvatinib mesylate] [fluvatinib methanesulfonate]
crystal transformation in ethanol [7, 13]: transformed into the crystalline form III

crystal transformation under high temperature and high humidity conditions [3]: undergone crystal transformation
crystal transformation in ethanol [7, 12]: converted to Form III
SMILES: COc1cc2nccc(Oc3ccc(NC(=O)NC4CC4)c(Cl)c3F)c2cc1C(N)=O [crystalline form VII of fluvatinib mesylate] [fluvatinib methanesulfonate]
crystal transformation in ethanol [7, 13]: transformed into the crystalline form III
